Experimental data reported in US10563171B2, “Method for inducing differentiation of pluripotent stem cells into germ cells” (Kyoto University, priority 2015, dated 2020).

Legend:
BTAG 585B1-868 hiPSCs = test: Induction of iMeLCs from hiPSCs having induction capacity into BTAG positive cells (FACS of BTAG(+) cells); format: cell-based, human
Method: (§1) Initial mesoderm-like cells (iMeLCs) were induced by seeding hiPSCs maintained in StemFit™ in a 12 well plate coated with human plasma fibronectin (Millipore, FC010) at 1.0-2.0×10^5 cells per well in GK15 medium [GMEM containing 15% KSR, 0.1 mM NEAA, 2 mM L-glutamine, 1 mM sodium pyruvate and 0.1 mM 2-mercaptoethanol (Life Technologies)] containing 50 ng/ml activin A, 3 μM CHIR99021 and 10 μM ROCK inhibitor (Y-27632; Wako Pure Chemical Industries). The hiPSCs were induced by seeding in a low-cell-binding V-bottom 96 wellplate (Thermo, 81100574) at 3.0×10^3 cells per well in GK15 added with 1000 U/ml LlF (Millipore, #LIF1005), 200 ng/ml BMP 4,100 ng/ml SCF (R&D Systems, 455-MC), 50 ng/ml EGF (R&D Systems, 236-EG), and 10 μM ROCK inhibitor. For investigation of conditions and induction of iMeLCs or hPGCLC, PD173074 (StemGent, #04-0008) or LDN193189 (StemGent, #04-0074) was respectively added. Other than the above, WNT3A (R&D Systems, 5036-WN) was used instead of CHIR99021, and BMP2 (R&D Systems, 355-BM), BMP7 (R&D Systems, 354-BP), or BMP8A (R&D Systems, 1073-BP) was used instead of BMP4.
(§2) Floating aggregates containing hPGCLCs were separated by treating with 0.05% Trypsin-EDTA/PBS at 37° C. for 10 min. After washing with PBS containing FBS and 0.1% BSA, the cell suspension was filtered by a cell strainer (BD Biosciences) and centrifuged to remove cell aggregates. The collected cells were suspended in FACS buffer (0.1% BSA in PBS) and analyzed by a flow cytometer (ARIA III; BD Biosciences). For the analysis of hPGCLCs or hiPSCs, the separated cells were stained with APC-conjugated anti-human CD326 (EpCAM), BV421-conjugated anti-human/mouse CD49f, PE-conjugated anti-TRA-1-60, or FITC-conjugated anti-SSEA-4. Furthermore, intracellular staining using Alexa fluor 647-conjugated anti-OCT3/4, Alexa Fluor 647-conjugated anti-NANOG or V450-conjugated anti-SOX2 was performed using BD cytofix/Cytoferm Fixation/Permeabilization kit (BD, 554714) and according to the Manufacturer's instructions.

iMeLCs = test: Induction of BTAG positive cells (hPGCLCs) from iMeLCs in floating aggregates; format: cell-based, human; settings: for role in induction of BTAG positive cells from iMeLCs: combination of BMP4, LIF, SCF and EGF changed, FIG. 11A-D
Method: as §1, §2

Cc1c[nH]c(-c2cnc(NCCNc3ccc(C#N)cn3)nc2-c2ccc(Cl)cc2Cl)n1 [CHIR, 6-[2-[4-(2,4-Dichlorophenyl)-5-(4-methyl-1H-imidazol-2-yl)pyrimidin-2-ylamino]ethylamino]pyridine-3-carbonitrile, reference compound]
concentration essential for the induction of iMeLCs having induction capacity into BTAG positive cells (BTAG 585B1-868 hiPSCs; concentration changed during induction of iMeLC from hiPSCs, FIG. 10C): 3 to 5 µM

c1ccc2c(-c3cnn4cc(-c5ccc(N6CCNCC6)cc5)cnc34)ccnc2c1 [LDN193189, reference compound]
effect of BMP4 on BTAG positive cell induction in presence of ALK2/3 inhibitor (iMeLCs; FIG. 11B): blocked

CCN(CC)CCCCNc1ncc2cc(-c3cc(OC)cc(OC)c3)c(NC(=O)NC(C)(C)C)nc2n1 [PD173074, reference compound]
number of BTAG-positive cells per cell aggregate (BTAG 585B1-868 hiPSCs; FGFR signaling inhibited during induction of iMeLCs, FIG. 10G, 10H): increased

EGF: epithelial cell growth factor
role in induction of BTAG positive cells from iMeLCs (iMeLCs): maintaining rather than inducing

LIF: leukemia inhibitory factor
role in induction of BTAG positive cells from iMeLCs (iMeLCs): maintaining rather than inducing

SCF: stem cell factor
role in induction of BTAG positive cells from iMeLCs (iMeLCs): maintaining rather than inducing

bFGF: basic fibroblast growth factor
effect of signaling on iMeLCs induction (BTAG 585B1-868 hiPSCs; added during induction of iMeLC, FIG. 10D, 10E): acts negatively
